The numbers were not newly measured in patent US7265142B2, “Materials and methods for the treatment of hypertension and angina” (ARYx Therapeutics, priority 2001, dated 2007), which cites them from elsewhere.

The conditions of the series: background statement; patients switched from mibefradil to dihydropyridine CCBs.

On to `COCC(=O)O[C@]1(CCN(C)CCCc2nc3ccccc3[nH]2)CCc2cc(F)ccc2[C@@H]1C(C)C` [mibefradil], for which the half-life result is listed as “up to 24 hours”.
